Read-outs that look alike come from different tables or passages of the source. Marks after values point to notes of the source that are not given here.
What was measured:
[1] = biological target: human RORγt ligand binding domain (RORγt LBD) (Homo sapiens (Human), UniProt P51449); assay: RORγt ThermoFluor® assay (thermal shift binding); details: read-out: ThermoFluor® Assay, Kd
In short: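 Thermal shift with 0.065 mg/mL RORγt LBD and 60 μM 1,8-ANS in 100 mM Hepes pH 7.0, 10 mM NaCl, 2.5 mM GSH, 0.002% Tween-20.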

full-length human RORγt = full-length human RORγt (Homo sapiens (Human), UniProt P51449); assay: RORγt (full-length human) reporter assay, conditions A or B, HEK293T cells; format: cell-based; details: for inhibition at 2 µM / inhibition at 6 µM / inhibition at 0.67 µM / inhibition at 3 µM / inhibition at […]: HEK-293T; for inhibition at 2 µM: 2 μM compound concentration; for inhibition at 2 µM / inhibition at 0.67 µM / inhibition at 3 µM / inhibition at […]: read-out: RORγt (FL) Reporter Assay A or B, % inhibition; for inhibition at 6 µM: read-out: RORγt (FL) Reporter Assay A or B, % inhibition @ 6 μM; for inhibition at 6 µM / RORγt (FL) Reporter Assay A or B, % inhibition @ 6 μM: 6 μM compound concentration; for inhibition at 3 µM: 3 μM compound concentration (footnote *)
In short: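 After 16–20 h, dual firefly/Renilla luciferase luminescence was read. Firefly signal was normalized to DMSO and saturating reference compound, then to Renilla, and fitted for IC50; % inhibition is versus DMSO.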

[2] = RORγt (FL) Reporter Assay A or B, IC50, HEK293T cells
[3] = HEK293T cells, read-out: RORγt (FL) Reporter Assay A or B, IC50

full-length human RORγt, sequence (P51449 other isoform, or with tags, fused parts or gaps): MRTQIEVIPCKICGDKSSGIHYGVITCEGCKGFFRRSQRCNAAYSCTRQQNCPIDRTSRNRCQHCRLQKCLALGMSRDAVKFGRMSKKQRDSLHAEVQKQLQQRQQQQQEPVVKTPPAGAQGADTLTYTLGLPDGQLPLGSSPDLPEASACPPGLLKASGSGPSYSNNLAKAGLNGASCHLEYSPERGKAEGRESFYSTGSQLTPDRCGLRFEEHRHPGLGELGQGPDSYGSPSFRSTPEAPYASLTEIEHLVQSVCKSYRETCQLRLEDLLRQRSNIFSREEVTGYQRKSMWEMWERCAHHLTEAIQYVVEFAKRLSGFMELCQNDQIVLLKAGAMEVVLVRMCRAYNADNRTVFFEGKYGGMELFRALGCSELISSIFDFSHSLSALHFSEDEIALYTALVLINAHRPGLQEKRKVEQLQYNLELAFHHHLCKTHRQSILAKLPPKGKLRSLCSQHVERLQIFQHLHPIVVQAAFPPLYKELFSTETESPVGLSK
human RORγt ligand binding domain (RORγt LBD), sequence (P51449 other isoform, or with tags, fused parts or gaps): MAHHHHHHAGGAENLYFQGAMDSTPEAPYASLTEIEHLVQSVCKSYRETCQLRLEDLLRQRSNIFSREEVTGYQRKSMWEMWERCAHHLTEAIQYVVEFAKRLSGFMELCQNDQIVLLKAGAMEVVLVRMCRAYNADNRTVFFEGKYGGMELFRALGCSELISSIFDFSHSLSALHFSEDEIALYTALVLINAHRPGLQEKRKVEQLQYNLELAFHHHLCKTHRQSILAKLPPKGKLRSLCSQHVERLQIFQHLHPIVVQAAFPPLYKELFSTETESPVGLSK

Row | SMILES | Kd [1] | inhibition at 2 µM (full-length human RORγt) | IC50 (full-length human RORγt; [2]) | other results
1 | CCn1nc(C(=O)NC[C@H]2CC[C@H](S(C)(=O)=O)CC2)c(Cl)c1-c1ccc(N2CC(C(F)(F)F)C2)cc1OC [Example 208, 4-Chloro-1-ethyl-5-(2-methoxy-4-(3-(trifluoromethyl)azetidin-1-yl)phenyl)-N-(((1r,4r)-4-(methylsulfonyl)cyclohexyl)methyl)-1H-pyrazole-3-carboxamide] | 0.04 µM | 87% | 0.15 µM | –
2 | CCn1nc(C(=O)NC[C@H]2CC[C@H](S(C)(=O)=O)CC2)c(Cl)c1-c1ccc(OCCC(F)(F)F)cc1OC [Example 213, 4-Chloro-1-ethyl-5-(2-methoxy-4-(3,3,3-trifluoropropoxy)phenyl)-N-(((1r,4r)-4-(methylsulfonyl)cyclohexyl)methyl)-1H-pyrazole-3-carboxamide] | 0.034 µM | 77% | 0.077 µM | –
3 | CCn1nc(C(=O)NC[C@H]2CC[C@H](S(C)(=O)=O)CC2)c(Cl)c1-c1ccc(OCC(C)(F)F)cc1OC [Example 214, 4-Chloro-5-(4-(2,2-difluoropropoxy)-2-methoxyphenyl)-1-ethyl-N-(((1r,4r)-4-(methylsulfonyl)cyclohexyl)methyl)-1H-pyrazole-3-carboxamide] | 0.039 µM | 79% | 0.084 µM | –
4 | CCn1nc(C(=O)NC[C@]2(O)CC[C@@H](S(C)(=O)=O)CC2)c(C(F)(F)F)c1-c1ccc(N[C@H](C)C(F)(F)F)cc1OC [Example 217, 1-Ethyl-N-(((1s,4S)-1-hydroxy-4-(methylsulfonyl)cyclohexyl)methyl)-5-(2-methoxy-4-(((R)-1,1,1-trifluoropropan-2-yl)amino)phenyl)-4-(trifluoromethyl)-1H-pyrazole-3-carboxamide] | 0.017 µM | – | – | RORγt (FL) Reporter Assay A or B, % inhibition (full-length human RORγt; 1 μM compound concentration (footnote ***)): 104*** %; IC50 (full-length human RORγt; [3]): 0.013 µM
5 | CCn1nc(C(=O)NC[C@]2(O)CC[C@H](S(C)(=O)=O)CC2)c(Cl)c1-c1ccc(N[C@H](C)C(F)(F)F)cc1OC [Example 220, 4-Chloro-1-ethyl-N-(((1r,4R)-1-hydroxy-4-(methylsulfonyl)cyclohexyl)methyl)-5-(2-methoxy-4-(((R)-1,1,1-trifluoropropan-2-yl)amino)phenyl)-1H-pyrazole-3-carboxamide] | 0.43 µM | – | – | RORγt (FL) Reporter Assay A or B, % inhibition @ 6 μM (full-length human RORγt): 90%; IC50 (full-length human RORγt; [3]): 1.1 µM
6 | CCn1nc(C(=O)NC[C@]2(O)CC[C@@H](S(C)(=O)=O)CC2)c(C)c1-c1ccc(CCC(F)(F)F)cc1OC [Example 225, 1-Ethyl-N-(((1s,4s)-1-hydroxy-4-(methylsulfonyl)cyclohexyl)methyl)-5-(2-methoxy-4-(3,3,3-trifluoropropyl)phenyl)-4-methyl-1H-pyrazole-3-carboxamide] | 0.026 µM | 76% | 0.093 µM | –
7 | CCn1nc(C(=O)NC[C@H]2CC[C@H](S(C)(=O)=O)CC2)c(C)c1-c1ccc(CCC(F)(F)F)cc1OC [Example 226, 1-Ethyl-5-(2-methoxy-4-(3,3,3-trifluoropropyl)phenyl)-4-methyl-N-(((1r,4r)-4-(methylsulfonyl)cyclohexyl)methyl)-1H-pyrazole-3-carboxamide] | 0.012 µM | – | 0.038 µM | inhibition at 0.67 µM (full-length human RORγt; 0.67 μM compound concentration (footnote ****)): 71%
8 | CCn1nc(C(=O)NC[C@H]2CC[C@H](S(C)(=O)=O)CC2)c(C)c1-c1ccc(N[C@H](C)C(F)(F)F)cc1OC [Example 228, 1-Ethyl-5-(2-methoxy-4-(((R)-1,1,1-trifluoropropan-2-yl)amino)phenyl)-4-methyl-N-(((1r,4R)-4-(methylsulfonyl)cyclohexyl)methyl)-1H-pyrazole-3-carboxamide] | 0.012 µM | – | 0.029 µM | inhibition at 6 µM (full-length human RORγt): 99%

Stronger by Kd [1], values ahead:

Row | Kd [1] | inhibition at 2 µM (full-length human RORγt) | IC50 (full-length human RORγt; [2]) | SMILES | other results
9 | 0.007 µM | 100% | 0.031 µM | CCc1cc(N[C@H](C)C(F)(F)F)ccc1-c1c(Cl)c(C(=O)NC[C@H]2CC[C@H](S(C)(=O)=O)CC2)nn1CC [Example 206, 4-Chloro-1-ethyl-5-(2-ethyl-4-(((R)-1,1,1-trifluoropropan-2-yl)amino)phenyl)-N-(((1r,4R)-4-(methylsulfonyl)cyclohexyl)methyl)-1H-pyrazole-3-carboxamide] | –
10 | 0.01 µM | – | 0.04 µM | CCn1nc(C(=O)NC[C@H]2CC[C@H](S(C)(=O)=O)CC2)c(Cl)c1-c1ccc(N[C@H](C)C(F)(F)F)cc1OC(C)C [Example 207, 4-Chloro-1-ethyl-5-(2-isopropoxy-4-(((R)-1,1-trifluoropropan-2-yl)amino)phenyl)-N-(((1r,4R)-4-(methylsulfonyl)cyclohexyl)methyl)-1H-pyrazole-3-carboxamide] | inhibition at 6 µM (full-length human RORγt): 101%
11 | 0.0074 µM | 81% | 0.033 µM | CCn1nc(C(=O)NC[C@H]2CC[C@H](S(C)(=O)=O)CC2)c(Cl)c1-c1ccc(OC(C)C(F)(F)F)cc1OC (stereo partly drawn) [Example 212, 4-Chloro-1-ethyl-5-(2-methoxy-4-((1,1,1-trifluoropropan-2-yl)oxy)phenyl)-N-(((1r,4r)-4-(methylsulfonyl)cyclohexyl)methyl)-1H-pyrazole-3-carboxamide] | –
12 | 0.0066 µM | 80% | 0.056 µM | CCn1nc(C(=O)NC[C@H]2CC[C@H](S(C)(=O)=O)CC2)c(Cl)c1-c1ccc(OCC2(C)CC2)cc1OC [Example 215, 4-Chloro-1-ethyl-5-(2-methoxy-4-((1-methylcyclopropyl)methoxy)phenyl)-N-(((1r,4r)-4-(methylsulfonyl)cyclohexyl)methyl)-1H-pyrazole-3-carboxamide] | –
13 | 0.00097 µM | 107% | 0.028 µM | CCn1nc(C(=O)NC[C@H]2CC[C@H](S(C)(=O)=O)CC2)c(Cl)c1-c1ccc(NC(C(F)(F)F)C(F)(F)F)cc1OC [Example 216, 4-Chloro-1-ethyl-5-(4-((1,1,1,3,33-hexafluoropropan-2-yl)amino)-2-methoxyphenyl)-N-(((1r,4r)-4-(methylsulfonyl)cyclohexyl)methyl)-1H-pyrazole-3-carboxamide] | –
14 | 0.0063 µM | – | – | CCn1nc(C(=O)NC[C@H]2CC[C@H](S(C)(=O)=O)CC2)c(C(F)(F)F)c1-c1ccc(N[C@H](C)C(F)(F)F)cc1OC [Example 218, 1-Ethyl-5-(2-methoxy-4-(((R)-1,1,1-trifluoropropan-2-yl)amino)phenyl)-N-(((1r,4R)-4-(methylsulfonyl)cyclohexyl)methyl)-4-(trifluoromethyl)-1H-pyrazole-3-carboxamide] | RORγt (FL) Reporter Assay A or B, % inhibition @ 6 μM (full-length human RORγt): 105%; IC50 (full-length human RORγt; [3]): 0.061 µM
15 | 0.0099 µM | – | 0.03 µM | CCn1nc(C(=O)NC[C@H]2CC[C@H](S(C)(=O)=O)CC2)c(Cl)c1-c1ccc(OC2CCC(F)(F)CC2)cc1OC [Example 219, 4-Chloro-5-(4-((4,4-difluorocyclohexyl)oxy)-2-methoxyphenyl)-1-ethyl-N-(((1r,4r)-4-(methylsulfonyl)cyclohexyl)methyl)-1H-pyrazole-3-carboxamide] | inhibition at 0.67 µM (full-length human RORγt): 98%
16 | 0.0025 µM | – | 0.0093 µM | CCn1nc(C(=O)NC[C@]2(O)CC[C@@H](S(C)(=O)=O)CC2)c(Cl)c1-c1ccc(CCC(F)(F)F)cc1OC(F)F [Example 221, 4-Chloro-5-(2-(difluoromethoxy)-4-(3,3,3-trifluoropropyl)phenyl)-1-ethyl-N-(((1s,4s)-1-hydroxy-4-(methylsulfonyl)cyclohexyl)methyl)-1H-pyrazole-3-carboxamide] | inhibition at 3 µM (full-length human RORγt): 90%
17 | 0.01 µM | – | 0.0023 µM | CCn1nc(C(=O)NC[C@]2(O)CC[C@@H](S(C)(=O)=O)CC2)c(C)c1-c1ccc(CCC(F)(F)F)cc1OC(F)F [Example 223, 5-(2-(Difluoromethoxy)-4-(3,3,3-trifluoropropyl)phenyl)-1-ethyl-N-(((1s,4s)-1-hydroxy-4-(methylsulfonyl)cyclohexyl)methyl)-4-methyl-1H-pyrazole-3-carboxamide] | inhibition at […] (full-length human RORγt; 0.33 μM compound concentration (footnote *****)): 68%
18 | 0.0024 µM | – | 0.00044 µM | CCn1nc(C(=O)NC[C@H]2CC[C@H](S(C)(=O)=O)CC2)c(C)c1-c1ccc(CCC(F)(F)F)cc1OC(F)F [Example 224, 5-(2-(Difluoromethoxy)-4-(3,3,3-trifluoropropyl)phenyl)-1-ethyl-4-methyl-N-(((1r,4r)-4-(methylsulfonyl)cyclohexyl)methyl)-1H-pyrazole-3-carboxamide] | inhibition at […] (full-length human RORγt; 0.11 μM compound concentration (footnote ********)): 95%
19 | 0.0031 µM | – | 0.009 µM | CC(C)(Cc1ccc(-c2c(Cl)c(C(=O)NC[C@]3(O)CC[C@@H](S(C)(=O)=O)CC3)nn2CCCC#N)c(OC(F)F)c1)C(F)(F)F [Example 229, 4-Chloro-1-(3-cyanopropyl)-5-(2-(difluoromethoxy)-4-(3,3,3-trifluoro-2,2-dimethylpropyl)phenyl)-N-(((1s,4s)-1-hydroxy-4-(methylsulfonyl)cyclohexyl)methyl)-1H-pyrazole-3-carboxamide] | inhibition at 3 µM (full-length human RORγt): 78%
